Source: patent US9890147B2 (BAYER PHARMA AKTIENGESELLSCHAFT, priority 2012, dated 2018)

Legend:
[1] = biological target: T1, BRD4 (BD1) (Homo sapiens, UniProt O60885); test: Binding assay BRD4/acetylated peptide H4 (TR-FRET protein-protein interaction assay)
T1 construct: with relatively long constructs also being possible, preferably amino acids 44-168; made in house; host or cells: E. coli
Outline: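 Displacement of biotin-Ac-H4 peptide from His6-tagged BRD4(BD1), final usually 10 nM, read as Eu-streptavidin to anti-His-XL665 TR-FRET (665/620 nm). Compounds tested at 11 doses up to 20 μM in duplicate, pH 7.5 HEPES, 22 °C then 4 °C incubation; IC50 by 4-parameter regression.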

[2] = test system: MOLM-13 cells; test: Cell proliferation assay (alamarBlue), MOLM-13; assay type: cell-based; conditions: Homo sapiens, 96 hours incubation, inhibition of cell proliferation
Outline: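 IC50 = concentration giving 50% growth inhibition relative to buffer-treated cells, after subtracting baseline fluorescence taken before dosing. Compound applied at 1E-5 to 1E-8 M for 96 h at 37 °C in RPMI1640 with 10% FCS; alamarBlue signal at 530/590 nm.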

IC50 [1] | IC50 [2] | SMILES
40 nM | 270 nM | CNC(=O)N1N=C(c2ccc(-c3cccc(S(=O)(=O)NC)c3)cc2)c2cc(OC)c(OC)cc2CC1C (racemic) [Example 121, (±)-7,8-dimethoxy-N,4-dimethyl-1-[3′-(methylsulphamoyl)biphenyl-4-yl]-4,5-dihydro-3H-2,3-benzodiazepine-3-carboxamide]
30 nM | 170 nM | CNC(=O)N1N=C(c2ccc(N3CCC(O)CC3)cc2)c2cc(OC)c(OC)cc2CC1C (racemic) [Example 130, (±)-1-[4-(4-hydroxypiperidin-1-yl)phenyl]-7,8-dimethoxy-N,4-dimethyl-4,5-dihydro-3H-2,3-benzodiazepine-3-carboxamide]
880 nM | 300 nM | CNC(=O)N1N=C(c2ccc(N3CCN(CCO)CC3)cc2)c2ccc(OC(F)(F)F)cc2CC1C (racemic) [Example 218, (±)-1-{4-[4-(2-hydroxyethyl)piperazin-1-yl]phenyl}-N,4-dimethyl-7-(trifluoromethoxy)-4,5-dihydro-3H-2,3-benzodiazepine-3-carboxamide]
40 nM | 470 nM | CNC(=O)N1N=C(c2ccc(-c3ccc([S+](C)[O-])cc3)cc2)c2cc(OC)c(OC)cc2CC1C (racemic) [Example 67, (±)-7,8-dimethoxy-N,4-dimethyl-1-[4′-(methylsulphinyl)biphenyl-4-yl]-4,5-dihydro-3H-2,3-benzodiazepine-3-carboxamide]
4080 nM | 7560 nM | CNC(=O)N1N=C(c2ccc(N3CCN(C(C)=O)CC3)cc2)c2cc(OC)c(OC)cc2C[C@H]1C [Example 132.1, (4R)-1-[4-(4-acetylpiperazin-1-yl)phenyl]-7,8-dimethoxy-N,4-dimethyl-4,5-dihydro-3H-2,3-benzodiazepine-3-carboxamide]
40 nM | 300 nM | CNC(=O)N1N=C(c2ccc(-c3ccc(NS(C)(=O)=O)cc3)cc2)c2cc(OC)c(OC)cc2CC1C (racemic) [Example 70, (±)-7,8-dimethoxy-N,4-dimethyl-1-{4′-[(methylsulphonyl)amino]biphenyl-4-yl}-4,5-dihydro-3H-2,3-benzodiazepine-3-carboxamide]
2240 nM | > 10000 nM | CNC(=O)N1N=C(c2ccc(-c3c(C)noc3C)cc2)c2cc(OC(F)(F)F)c(Cl)cc2C[C@H]1C [Example 156.2, (4R)-7-Chloro-1-[4-(3,5-dimethylisoxazol-4-yl)phenyl]-N,4-dimethyl-8-(trifluoromethoxy)-4,5-dihydro-3H-2,3-benzodiazepine-3-carboxamide]
70 nM | 140 nM | CNC(=O)N1N=C(c2ccc(N3CCCN(C)CC3=O)cc2)c2cc(OC)c(OC)cc2C[C@@H]1C [Example 229, (4S)-7,8-dimethoxy-N,4-dimethyl-1-[4-(4-methyl-2-oxo-1,4-diazepan-1-yl)phenyl]-4,5-dihydro-3H-2,3-benzodiazepine-3-carboxamide]
470 nM | 1150 nM | CNC(=O)N1N=C(c2ccc(F)c(N3CCC(O)CC3)c2)c2cc(OC)c(OC)cc2CC1C (racemic) [Example 146, (±)-1-[4-fluoro-3-(4-hydroxypiperidin-1-yl)phenyl]-7,8-dimethoxy-N,4-dimethyl-4,5-dihydro-3H-2,3-benzodiazepine-3-carboxamide]
60 nM | 360 nM | CNC(=O)N1N=C(c2ccc(-c3ccc(N4CCOCC4)cc3)cc2)c2cc(OC)c(OC)cc2CC1C (racemic) [Example 110, (±)-7,8-dimethoxy-N,4-dimethyl-1-[4′-(morpholin-4-yl)biphenyl-4-yl]-4,5-dihydro-3H-2,3-benzodiazepine-3-carboxamide]
290 nM | 1080 nM | CNC(=O)N1N=C(c2ccc(-c3cccc(C(F)(F)F)c3)cc2)c2cc(OC)c(OC)cc2CC1C (racemic) [Example 85, (±)-7,8-dimethoxy-N,4-dimethyl-1-[3′-(trifluoromethyl)biphenyl-4-yl]-4,5-dihydro-3H-2,3-benzodiazepine-3-carboxamide]
390 nM | 2700 nM | CNC(=O)N1N=C(c2ccc(N3CCC(N(C)C)CC3)cc2)c2cc(OC)c(OC)cc2C[C@H]1C [Example 180.1, (4R)-1-{4-[4-(dimethylamino)piperidin-1-yl]phenyl}-7,8-dimethoxy-N,4-dimethyl-4,5-dihydro-3H-2,3-benzodiazepine-3-carboxamide]
20 nM | 1310 nM | CNC(=O)N1N=C(c2ccc(-n3nc(C(F)(F)F)cc3C)cc2)c2cc(OC)c(OC)cc2CC1C (racemic) [Example 151, (±)-7,8-dimethoxy-N,4-dimethyl-1-{4-[5-methyl-3-(trifluoromethyl)-1H-pyrazol-1-yl]phenyl}-4,5-dihydro-3H-2,3-benzodiazepine-3-carboxamide]
60 nM | 660 nM | CNC(=O)N1N=C(c2ccc(-c3cncc(F)c3)cc2)c2cc(OC)c(OC)cc2CC1C (racemic) [Example 122, (±)-1-[4-(5-fluoropyridin-3-yl)phenyl]-7,8-dimethoxy-N,4-dimethyl-4,5-dihydro-3H-2,3-benzodiazepine-3-carboxamide]
380 nM | 1180 nM | CNC(=O)N1N=C(c2ccc(Cl)cc2)c2cc(OCCN3CCOCC3)ccc2CC1C (racemic) [Example 32, (±)-1-(4-Chlorophenyl)-N,4-dimethyl-8-[2-(morpholin-4-yl)ethoxy]-4,5-dihydro-3H-2,3-benzodiazepine-3-carboxamide]
20 nM | 60 nM | CNC(=O)N1N=C(c2ccc(-c3c(C)nn(C)c3C)cc2)c2cc(OC(F)(F)F)ccc2C[C@@H]1C [Example 249.1, (4S)-N,4-dimethyl-8-(trifluoromethoxy)-1-[4-(1,3,5-trimethyl-1H-pyrazol-4-yl)phenyl]-4,5-dihydro-3H-2,3-benzodiazepine-3-carboxamide]
70 nM | 170 nM | CNC(=O)N1N=C(c2ccc(N3CCC(C)(NC(=O)OC(C)(C)C)CC3)cc2)c2cc(OC)c(OC)cc2CC1C (racemic) [Example 191, (±)-tert-butyl (1-{4-[7,8-dimethoxy-4-methyl-3-(methylcarbamoyl)-4,5-dihydro-3H-2,3-benzodiazepin-1-yl]phenyl}-4-methylpiperidin-4-yl)carbamate]
8940 nM | 7080 nM | CNC(=O)N1N=C(c2ccc(N3CCN(C)CC3)cc2)c2cc(OC)c(OC(F)F)cc2C[C@H]1C [Example 163.1, (4R)-7-(difluoromethoxy)-8-methoxy-N,4-dimethyl-1-[4-(4-methylpiperazin-1-yl)phenyl]-4,5-dihydro-3H-2,3-benzodiazepine-3-carboxamide]
130 nM | 380 nM | CNC(=O)N1N=C(c2ccc(-c3c(C)noc3C)cc2)c2cc(OC)c(OC(F)F)cc2CC1C (racemic) [Example 162, (±)-7-(difluoromethoxy)-1-[4-(3,5-dimethylisoxazol-4-yl)phenyl]-8-methoxy-N,4-dimethyl-4,5-dihydro-3H-2,3-benzodiazepine-3-carboxamide]

SMILES | IC50 [1] | IC50 [2]
CNC(=O)N1N=C(c2ccc(Cl)cc2)c2cc(OC(F)(F)F)c(Cl)cc2CC1C (single isomer, unassigned) [Example 15.1, 7-Chloro-1-(4-chlorophenyl)-N,4-dimethyl-8-(trifluoromethoxy)-4,5-dihydro-3H-2,3-benzodiazepine-3-carboxamide] | 450 nM | 3050 nM
